From US8927498B2, “Compositions and methods useful in enhancement of memory” (The Translational Genomics Research Institute, priority 2010, dated 2015)

Assays:
Type in all cases: in vivo, rat
[1] = test system: hippocampal expression of candidate genes; test: hippocampal expression of candidate genes, Illumina RatRef-12 expression BeadChip
Excerpt: (§1) Following sacrifice, the left hippocampus was utilized for genome-wide expression profiling. […] These included Adcyap1 with fold change (FC) of 1.5, and p=0.029, Tiam1 with FC of −1.5 and p=0.028, and Filip1 with FC of −1.75 and p=0.032 (Table 1). The RT-PCR validation of the fold change of FILIP1 and Tiam1 is shown in Table 2 and Table 3, respectively.

[2] = test system: hippocampal transcripts (mitochondrial pathway genes and genes associated with neurological function); test: transcriptome examination using RNA-Seq, hippocampus
Excerpt: Transcriptome Examination Using RNA-Seq Upon MARCKS Peptide Decoy Treatment
as §1
Table 4 disclosed herein provides the major pathways in mitochondria altered in the MARCKS peptide decoy treated animals. Mitochondrial NADH dehydrogenase is a key enzyme in the oxidative phosphorylation pathway in the mitochondria. Mitochondrially encoded cytochrome c oxidase I (MT-CO1), also known as cytochrome c oxidase I (COX1), is a protein that is found in mitochondria. Cytochrome c oxidase is the component of the respiratory chain that catalyzes the reduction of oxygen to water. MT-CO1 is associated with aging. Mutations in the human MT-CO1 gene have been associated with several diseases, including neurodegenerative diseases, such as late-onset Alzheimer disease. Cytochrome b (mt-cyb) is a component of the ubiquinol-cytochrome c reductase complex (complex III or cytochrome b-c1 complex), which is a respiratory chain that generates an electrochemical potential coupled to ATP synthesis. ATP synthase F0 subunit 6 (or subunit/chain A) is a subunit of F0 complex of transmembrane F-type ATP synthase. This subunit is a key component of the proton channel, and may play a direct role in the translocation of protons across the membrane. ATP6 is a gene associated with neuropathy, ataxia, and retinitis pigmentosa. mt-ATP8 is another subunit involved in ATP biosynthetic process.
Table 5 provides the list of the genes that are directly or indirectly associated with neurological function and are with significant fold change in peptide decoy treated animals in comparison to the controls.

FILIP1 = test: RT-PCR validation of FILIP1 (normalized to GAPDH); details: n = 9; vehicle 1.28
Excerpt: as §1

Tiam1 = test: RT-PCR validation of Tiam1 normalized to GADPH; details: n = 9; vehicle 1.02
Excerpt: as §1

[3] = hippocampus, treated vs. vehicle rats, Mann-Whitney
[4] = hippocampus, treated vs. vehicle rats, T-Test
[5] = left hippocampus, genome-wide expression profiling
[6] = locus chrM: 9450-9798, vehicle 617.42

## SEQ ID NO: 1: fusion peptide including a TAT protein transduction domain and residues surrounding two known serine phosphorylation targets (Ser159 and Ser163) within MARCKS (YGRKKRRQRRRCKRFSFKKSFKLSGFSFKK; TAT MARCKS fusion)
[1]; [3]
  Fold Change Filip1: −1.747
  Fold Change Gna1: −1.534
  Fold Change Ptpro: −1.708
  Fold Change Tiam1: −1.510
  Fold Change Tp53i11_predicted: −1.581
[1]; [4]
  Fold Change Adcyap1: 1.554
  Fold Change Filip1: −1.747
  Fold Change LOC501145: 1.566
  Fold Change Perp_predicted: −1.647
  Fold Change Tiam1: −1.499
  Fold Change Tp53i11_predicted: −1.554
[1]; [5]
  fold change (FC) Adcyap1: 1.5
  fold change (FC) Filip1: −1.75
  fold change (FC) Tiam1: −1.5
[2]; locus chr1: 77244168-77252808
  Ln (Fold Change) (M/V), Calm3: 1.894
[2]; locus chr1: 77244168-77252808, vehicle 856.54
  MARCKS FPKM, Calm3: 1621.94 FPKM
[2]; locus chr1: 212430422-212432741
  Ln (Fold Change) (M/V), Fth1: 1.397
[2]; locus chr1: 212430422-212432741, vehicle 354.58
  MARCKS FPKM, Fth1: 495.44 FPKM
[2]; locus chr1: 249369571-249369889
  Ln (Fold Change) (M/V), P97600_RAT: 0.7544
[2]; locus chr1: 249369571-249369889, vehicle 492.68
  MARCKS FPKM, P97600_RAT: 371.65 FPKM
[2]; locus chr2: 147913244-147929296
  Ln (Fold Change) (M/V), Selt: 0.5377
[2]; locus chr2: 147913244-147929296, vehicle 214.44
  MARCKS FPKM, Selt: 115.30 FPKM
[2]; locus chr3: 124860288-124894636
  Ln (Fold Change) (M/V), Snap25: 0.8176
[2]; locus chr3: 124860288-124894636, vehicle 750.47
  MARCKS FPKM, Snap25: 613.59 FPKM
[2]; locus chr3: 154926026-155140469
  Ln (Fold Change) (M/V), Ywhab: 0.5137
[2]; locus chr3: 154926026-155140469, vehicle 131.57
  MARCKS FPKM, Ywhab: 67.59 FPKM
[2]; locus chr5: 19822457-19849209
  Ln (Fold Change) (M/V), Sdcbp: 0.666
[2]; locus chr5: 19822457-19849209, vehicle 131.61
  MARCKS FPKM, Sdcbp: 87.65 FPKM
[2]; locus chr5: 105659673-105661250
  Ln (Fold Change) (M/V), Rraga: 0.4798
[2]; locus chr5: 105659673-105661250, vehicle 433.02
  MARCKS FPKM, Rraga: 207.77 FPKM
[2]; locus chr5: 148268061-148276223
  Ln (Fold Change) (M/V), HPCA_RAT: 2.229
[2]; locus chr5: 148268061-148276223, vehicle 141.44
  MARCKS FPKM, HPCA_RAT: 315.32 FPKM
[2]; locus chr6: 94397064-94426283
  Ln (Fold Change) (M/V), RTN1_RAT: 1.726
[2]; locus chr6: 94397064-94426283, vehicle 842.08
  MARCKS FPKM, RTN1_RAT: 1453.43 FPKM
[2]; locus chr7: 137706855-137709839
  Ln (Fold Change) (M/V), Tuba1b: 0.5387
[2]; locus chr7: 137706855-137709839, vehicle 219.23
  MARCKS FPKM, Tuba1b: 118.09 FPKM
[2]; locus chr10: 63072127-63109833
  Ln (Fold Change) (M/V), Ywhae: 0.6546
[2]; locus chr10: 63072127-63109833, vehicle 892.66
  MARCKS FPKM, Ywhae: 584.35 FPKM
[2]; locus chr10: 64308825-64312415
  Ln (Fold Change) (M/V), Aldoc: 0.5322
[2]; locus chr10: 64308825-64312415, vehicle 140.11
  MARCKS FPKM, Aldoc: 74.57 FPKM
[2]; locus chr15: 27338551-27347196
  Ln (Fold Change) (M/V), Ndrg2: 0.4224
[2]; locus chr15: 27338551-27347196, vehicle 142.86
  MARCKS FPKM, Ndrg2: 60.35 FPKM
[2]; locus chr15: 64161641-64162753
  Ln (Fold Change) (M/V), Calm-ps2: 0.7792
[2]; locus chr15: 64161641-64162753, vehicle 383.97
  MARCKS FPKM, Calm-ps2: 299.19 FPKM
[2]; locus chr16: 39670749-39783384
  Ln (Fold Change) (M/V), Gpm6a: 0.5709
[2]; locus chr16: 39670749-39783384, vehicle 311.49
  MARCKS FPKM, Gpm6a: 177.84 FPKM
[2]; locus chr16: 49353475-49357271
  Ln (Fold Change) (M/V), Slc25a4: 1.571
[2]; locus chr16: 49353475-49357271, vehicle 243.91
  MARCKS FPKM, Slc25a4: 383.20 FPKM
[2]; locus chr19: 11284554-11286402
  Ln (Fold Change) (M/V), Mt3: 1.316
[2]; locus chr19: 11284554-11286402, vehicle 301.07
  MARCKS FPKM, Mt3: 396.12 FPKM
[2]; locus chrM: 67-1025
  Ln (Fold Change) (M/V), Non-Annotated: 0.8288
[2]; locus chrM: 67-1025, vehicle 69491.10
  MARCKS FPKM, Non-Annotated: 57596.80 FPKM
[2]; locus chrM: 1093-2664
  Ln (Fold Change) (M/V), Non-Annotated: 0.6921
[2]; locus chrM: 1093-2664, vehicle 53178.50
  MARCKS FPKM, Non-Annotated: 36802.40 FPKM
[2]; locus chrM: 2739-3831
  Ln (Fold Change) (M/V), Mitochondrial NADH dehydrogenase subunit 1 mt-nd1: 0.7838
[2]; locus chrM: 2739-3831, vehicle 51.90
  MARCKS FPKM, Non-Annotated: 0.00 FPKM
[2]; locus chrM: 2739-3831, vehicle 126.72
  MARCKS FPKM, Non-Annotated: 0.00 FPKM
[2]; locus chrM: 2739-3831, vehicle 1879.89
  MARCKS FPKM, Mitochondrial NADH dehydrogenase subunit 1 mt-nd1: 1473.47 FPKM
[2]; locus chrM: 2739-3831, vehicle FPKM 51.90
  Ln (Fold Change) (M/V), Non-Annotated: 0
[2]; locus chrM: 2739-3831, vehicle FPKM 126.72
  Ln (Fold Change) (M/V), Non-Annotated: 0
[2]; locus chrM: 3903-5008
  Ln (Fold Change) (M/V), Mitochondrial NADH dehydrogenase subunit 2 mt-nd2: 0.5713
[2]; locus chrM: 3903-5008, vehicle 1965.45
  MARCKS FPKM, Mitochondrial NADH dehydrogenase subunit 2 mt-nd2: 1122.94 FPKM
[2]; locus chrM: 5322-6933
  Ln (Fold Change) (M/V), Cytochrome c oxidase subunit I mt-co1: 0.7397
  Ln (Fold Change) (M/V), Non-Annotated: 0
[2]; locus chrM: 5322-6933, vehicle 321.91
  MARCKS FPKM, Non-Annotated: 0.00 FPKM
[2]; locus chrM: 5322-6933, vehicle 9734.89
  MARCKS FPKM, Cytochrome c oxidase subunit I mt-co1: 7200.89 FPKM
[2]; locus chrM: 7005-7689
  Ln (Fold Change) (M/V), Cytochrome c oxidase subunit 2 mt-co2: 0.6512
[2]; locus chrM: 7005-7689, vehicle 5773.44
  MARCKS FPKM, Cytochrome c oxidase subunit 2 mt-co2: 3759.79 FPKM
[2]; locus chrM: 7757-9382
  Ln (Fold Change) (M/V), ATP synthase F0 subunit 6 mt-ATP6: 0.5529
  Ln (Fold Change) (M/V), ATP synthase F0 subunit 8 mt-ATP8: 0.7137
  Ln (Fold Change) (M/V), Cytochrome c oxidase subunit 3 mt-co3: 0.5326
[2]; locus chrM: 7757-9382, vehicle 3257.55
  MARCKS FPKM, ATP synthase F0 subunit 6 mt-ATP6: 1801.13 FPKM
[2]; locus chrM: 7757-9382, vehicle 3627.88
  MARCKS FPKM, ATP synthase F0 subunit 8 mt-ATP8: 2589.08 FPKM
[2]; locus chrM: 7757-9382, vehicle 5137.18
  MARCKS FPKM, Cytochrome c oxidase subunit 3 mt-co3: 2736.25 FPKM
[2]; locus chrM: 9450-9798
  Ln (Fold Change) (M/V), Mitochondrial NADH dehydrogenase subunit 3 mt-nd3: 0.5255
  Ln (Fold Change) (M/V), NU3M_RAT: 0.5255
[2]; [6]
  MARCKS FPKM, Mitochondrial NADH dehydrogenase subunit 3 mt-nd3: 324.46 FPKM
  MARCKS FPKM, NU3M_RAT: 324.46 FPKM
[2]; locus chrM: 9869-11537
  Ln (Fold Change) (M/V), Mitochondrial NADH dehydrogenase subunit 4 mt-nd4: 0.6903
  Ln (Fold Change) (M/V), NADH dehydrogenase subunit 4L mt-ND4L: 0.7182
[2]; locus chrM: 9869-11537, vehicle 2440.82
  MARCKS FPKM, Mitochondrial NADH dehydrogenase subunit 4 mt-nd4: 1684.95 FPKM
[2]; locus chrM: 9869-11537, vehicle 5804.14
  MARCKS FPKM, NADH dehydrogenase subunit 4L mt-ND4L: 4168.41 FPKM
[2]; locus chrM: 11735-14061
  Ln (Fold Change) (M/V), Mitochondrial NADH dehydrogenase subunit 5 mt-nd5: 0.8563
  Ln (Fold Change) (M/V), Mitochondrial NADH dehydrogenase subunit 6 mt-nd6: 0.4947
[2]; locus chrM: 11735-14061, vehicle 1073.10
  MARCKS FPKM, Mitochondrial NADH dehydrogenase subunit 6 mt-nd6: 530.91 FPKM
[2]; locus chrM: 11735-14061, vehicle 2920.80
  MARCKS FPKM, Mitochondrial NADH dehydrogenase subunit 5 mt-nd5: 2501.19 FPKM
[2]; locus chrM: 14135-15278
  Ln (Fold Change) (M/V), Cytochrome b (mt-cyb): 0.7536
[2]; locus chrM: 14135-15278, vehicle 2792.49
  MARCKS FPKM, Cytochrome b (mt-cyb): 2104.37 FPKM
[2]; locus chrX: 160299116-160305777
  Ln (Fold Change) (M/V), Gdi1: 0.6667
[2]; locus chrX: 160299116-160305777, vehicle 124.22
  MARCKS FPKM, Gdi1: 82.82 FPKM
FILIP1
  RT-PCR FILIP1 Average (normalized to GAPDH): 1.20
Tiam1
  RT-PCR Tiam1 Average normalized to GADPH: 0.89
